Earlier results as cited in patent US5047425A, “Amine derivatives having cardiovascular activity” (Simes Societa Italiana Medicinali & Sintetici SpA, priority 1987, dated 1991).

Conditions: literature: McKenna 1966; Whitsitt 1967; cited from earlier work

CC(C)NCC(O)COc1cccc2ccccc12 (centres unmarked) [Propranolol]
cardiac output: depresses at the same time the cardiac output
coronary flow: depresses at the same time the cardiac output and the coronary flow
